Assay results as given in patent publication US10221168B1, “Small-compound enhancers for functional O-mannosylation of alpha-dystroglycan, and uses thereof” (priority 2015, dated 2019).

test system: FOG of α-DG on the cell surfaces; test: Cell-based HTS/HCS assay, IIH6 antibody as probe (EC1.5); conditions: concentration of the compound required to enhance the FOG of α-DG by 50% over the controls; cell-based assays in vitro
Source text: Protein glycosylation is a multiple-step process that requires a large number of proteins in the secretory pathway of the cells. Thus we chose cell-based assay because our goal is to identify enhancer the FOG of α-DG on the cell surfaces. The assay system is HTS/HCS friendly and can adapt to various cell lines including myotubes as well as various readout methods including AlphaScreen, fluorescence density and HCS/fluorescence imaging. The standard operation protocol (SOP) for adhesion cells is described below and the FIG. 1 illustrates the assay process using myoblasts as the controls and screening cells and the IIH6 antibody as the probe. Other adhesion cells such CHO (Chinese hamster ovary) cell line can be implemented into this assay by simply removing the differentiation step.
Cell cultures: All cells are cultured at 37° C., 5% CO2, in appropriate media (F-12 for epithelial cells and DMEM for myoblasts) supplement with 10-20% fetal calf serum (FCS) and 1% antibiotics. […] The cells will be detached with trypsin EDTA and suspended in the cell culture media. The cells will be counted and seeded into the multiple-well plates as desired. Myotubes formation: When the myoblasts reach confluence, change the growth media to differential media (DEME with 2% horse serum) and incubate for 4-5 days.
The cells were fixed, permeablized, and then blocked with 10% BSA in PBS for 1 hour. […] After washing the cells with PBS for 2 times, the DAPI was used to stain the cells for 15 mins and wash 3 times with PBS. The images were captured with an inverted Olympus fluorescent microscope. For small compound localization experiment, the cells are incubated with the biotin conjugated compounds and then the cells were washed and incubated with streptavidin-Dye and then images will be captured to see the location of the compound-target-protein.
H, EC1.5<5 μM; M, EC1.5-20 μM; L, EC1.5 20-50 μM; VL, EC1.5>50 μM.

| Compound | Activity (EC1.5) |
| --- | --- |
| c1csc(Cn2nncc2CN2CCN(c3nc4ccccc4s3)CC2)c1 [Compound 1, 2-(4-((1-(thiophen-2-ylmethyl)-1H-1,2,3-triazol-5-yl)methyl)piperazin-1-yl)benzothiazole] | L (EC1.5 20-50 μM) |
| c1csc(Cn2nnnc2CN2CCN(c3nc4ccccc4s3)CC2)c1 [Compound 2, 2-(4-((1-(thiophen-2-ylmethyl)-1H-tetrazol-5-yl)methyl)piperazin-1-yl)benzothiazole] | M (EC1.5-20 μM) |
| CC(c1nnnn1Cc1cccs1)N1CCN(c2nc3ccccc3s2)CC1 (centres unmarked) [Compound 3, 2-(4-(1-(1-(thiophen-2-ylmethyl)-1H-tetrazol-5-yl)ethyl)piperazin-1-yl)benzothiazole] | M (EC1.5-20 μM) |
| CCC(c1nnnn1Cc1ccco1)N1CCC(c2nc3ccccc3s2)CC1 (centres unmarked) [Compound 4, 2-(1-(1-(1-(furan-2-ylmethyl)-1H-tetrazol-5-yl)propyl)piperidin-4-yl)benzothiazole] | M (EC1.5-20 μM) |
| CCC(c1nnnn1Cc1ccco1)N1CCN(c2nc3ccccc3s2)CC1 (centres unmarked) [Compound 5, 2-(4-(1-(1-(furan-2-ylmethyl)-1H-tetrazol-5-yl)propyl)piperazin-1-yl)benzothiazole] | M (EC1.5-20 μM) |
| CCC(c1nnnn1Cc1cccs1)N1CCN(c2nc3ccccc3s2)CC1 (centres unmarked) [Compound 6, 2-(4-(1-(1-(thiophen-2-ylmethyl)-1H-tetrazol-5-yl)propyl)piperazin-1-yl)benzothiazole] | M (EC1.5-20 μM) |
| CCC(c1nnnn1Cc1cccs1)N1CCN(c2nc3ccccc3o2)CC1 (centres unmarked) [Compound 7, 2-(4-(1-(1-(thiophen-2-ylmethyl)-1H-tetrazol-5-yl)propyl)piperazin-1-yl)benzoxazole] | M (EC1.5-20 μM) |
| CCC(c1nnnn1Cc1cccs1)N1CCC(c2nc3ccccc3s2)CC1 (centres unmarked) [Compound 8, 2-(1-(1-(1-(thiophen-2-ylmethyl)-1H-tetrazol-5-yl)propyl)piperidin-4-yl)benzothiazole] | M (EC1.5-20 μM) |
| CCC(c1nnnn1Cc1cccs1)N1CCN(c2nc3ccccc3[nH]2)CC1 (centres unmarked) [Compound 9, 2-(4-(1-(1-(thiophen-2-ylmethyl)-1H-tetrazol-5-yl)propyl)piperazin-1-yl)-1H-benzimidazole] | L (EC1.5 20-50 μM) |
| CCC(c1nnnn1Cc1cccs1)N1CCN(c2nc3ccc([N+](=O)[O-])cc3s2)CC1 (centres unmarked) [Compound 10, 6-nitro-2-(4-(1-(1-(thiophen-2-ylmethyl)-1H-tetrazol-5-yl)propyl)piperazin-1-yl)benzothiazole] | VL (EC1.5>50 μM) |
| CCC(c1nnnn1Cc1cccs1)N1CCN(c2nc3ccc(N)cc3s2)CC1 (centres unmarked) [Compound 11, 6-amino-2-(4-(1-(1-(thiophen-2-ylmethyl)-1H-tetrazol-5-yl)propyl)piperazin-1-yl)benzothiazole] | M (EC1.5-20 μM) |
| CCC(c1nnnn1Cc1cccs1)N1CCN(c2nc3ccc(NC(=O)CCCC[C@@H]4SC[C@@H]5NC(=O)N[C@@H]54)cc3s2)CC1 (stereo partly drawn) [Compound 12, 5-((3aS,4S,6aR)-2-oxohexahydro-1H-thieno[3,4-d]imidazol-4-yl)-N-(2-(4-(1-(1-(thiophen-2-ylmethyl)-1H-tetrazol-5-yl)propyl)piperazin-1-yl)benzothiazol-6-yl)pentanamide] | H (EC1.5<5 μM) |
| CCC(c1nnnn1Cc1cccs1)N1CCN(c2nc3ccc(F)cc3s2)CC1 (centres unmarked) [Compound 13, 6-fluoro-2-(4-(1-(1-(thiophen-2-ylmethyl)-1H-tetrazol-5-yl)propyl)piperazin-1-yl)benzothiazole] | L (EC1.5 20-50 μM) |
| CCC(c1nnnn1Cc1cccs1)N1CCN(c2nc3ccc(OC)cc3s2)CC1 (centres unmarked) [Compound 14, 6-methoxy-2-(4-(1-(1-(thiophen-2-ylmethyl)-1H-tetrazol-5-yl)propyl)piperazin-1-yl)benzothiazole] | M (EC1.5-20 μM) |
